Source: PubChem BioAssay (NCI)
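GI50 is the concentration that inhibits growth by half. At the TGI there is no net growth.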

Columns and labels:
Experiment in all cases: DTP human tumour cell line panel, 384-well format
[1] = tested on: A549 NSCLC
[2] = tested on: MALME-3M melanoma
[3] = tested on: COLO 205 colon
[4] = tested on: SF-268 CNS
[5] = tested on: HL-60(TB) leukemia
[6] = tested on: UACC-62 melanoma
[7] = tested on: MDA-MB-231 breast
[8] = tested on: HOP-62 NSCLC
[9] = tested on: HOP-92 NSCLC
[10] = tested on: SR leukemia
[11] = tested on: SK-MEL-28 melanoma
[12] = tested on: DU-145 prostate
[13] = tested on: SW-620 colon
[14] = tested on: UACC-257 melanoma
[15] = tested on: PC-3 prostate
[16] = tested on: SNB-75 CNS
[17] = tested on: NCI-H226 lung
[18] = tested on: SF-295 CNS
[19] = tested on: MOLT-4 leukemia
[20] = tested on: 786-0 renal
[21] = tested on: NCI-H322M lung
[22] = tested on: A498 renal
[23] = tested on: MCF7 breast
[24] = tested on: HCC-2998 colon
[25] = tested on: SNB-19 CNS
[26] = tested on: NCI-H460 NSCLC
[27] = tested on: HCT-116 colon
[28] = tested on: U251 glioblastoma
[29] = tested on: UO-31 renal
[30] = tested on: SN12C renal
[31] = tested on: CCRF-CEM leukemia
[32] = tested on: T-47D breast
[33] = tested on: OVCAR-8 ovarian
[34] = tested on: MDA-MB-435 melanoma
[35] = tested on: SK-OV-3 ovarian
[36] = tested on: SF-539 CNS
[37] = tested on: IGROV1 ovarian
[38] = tested on: BT-549 breast
[39] = tested on: HS 578T breast
[40] = tested on: OVCAR-4 ovarian
[41] = tested on: RXF 393 renal
[42] = tested on: NCI-H23 lung
[43] = tested on: OVCAR-3 ovarian
[44] = tested on: NCI-H522 lung
[45] = tested on: RPMI-8226 leukemia
[46] = tested on: HT29 colon
[47] = tested on: TK-10 renal
[48] = tested on: KM12 colon
[49] = tested on: MDA-MB-468 breast
[50] = tested on: M14 melanoma

**Q.** Which results are given for `CNC(=O)c1nn(C)c2c1C(C)(C)Cc1cnc(Nc3cccc(N4CCN(C)CC4)c3)nc1-2`?
**A.** GI50 [1]: 278 nM; TGI [1]: 12800 nM; GI50 [2]: 253 nM; TGI [2]: 2030 nM; GI50 [3]: 416 nM; TGI [3]: 9350 nM; GI50 [4]: 536 nM; TGI [4]: 2270 nM; GI50 [5]: 84.2 nM; TGI [5]: 1630 nM; GI50 [6]: 206 nM; TGI [6]: 2260 nM; GI50 [7]: 251 nM; TGI [7]: 43600 nM; GI50 [8]: 357 nM; TGI [8]: 7180 nM; GI50 [9]: 199 nM; TGI [9]: > 100000 nM; TGI [10]: 57.3 nM; GI50 [11]: 1080 nM; TGI [11]: 4010 nM; GI50 [12]: 522 nM; TGI [12]: 10500 nM; GI50 [13]: 391 nM; TGI [13]: 12600 nM; GI50 [14]: 1160 nM; TGI [14]: 4300 nM; GI50 [15]: 185 nM; TGI [15]: 11200 nM; GI50 [16]: 216 nM; TGI [16]: 2170 nM; GI50 [17]: 251 nM; TGI [17]: 4600 nM; GI50 [18]: 375 nM; TGI [18]: 3900 nM; GI50 [19]: 130 nM; TGI [19]: 317 nM; GI50 [20]: 309 nM; TGI [20]: 10900 nM; GI50 [21]: 523 nM; TGI [21]: 11200 nM; GI50 [22]: 46.6 nM; TGI [22]: 12300 nM; GI50 [23]: 345 nM; TGI [23]: 11400 nM; GI50 [24]: 433 nM; TGI [24]: 6560 nM; GI50 [25]: 414 nM; TGI [25]: 24100 nM; GI50 [26]: 89.3 nM; TGI [26]: 5350 nM; GI50 [27]: 123 nM; TGI [27]: 11700 nM; GI50 [28]: 437 nM; TGI [28]: 12700 nM; GI50 [29]: 235 nM; TGI [29]: 2190 nM; GI50 [30]: 198 nM; TGI [30]: 1740 nM; GI50 [31]: 252 nM; TGI [31]: 1210 nM; GI50 [32]: 1610 nM; TGI [32]: 13500 nM; GI50 [33]: 1450 nM; TGI [33]: 17100 nM; GI50 [34]: 612 nM; TGI [34]: 11300 nM; GI50 [35]: 42.2 nM; TGI [35]: 1290 nM; GI50 [36]: 405 nM; TGI [36]: 3420 nM; GI50 [37]: 62.4 nM; TGI [37]: 616 nM; GI50 [38]: 276 nM; TGI [38]: 2040 nM; GI50 [39]: 148 nM; TGI [39]: 1310 nM; GI50 [40]: 2260 nM; TGI [40]: 10600 nM; GI50 [41]: 122 nM; TGI [41]: 2140 nM; GI50 [42]: 157 nM; TGI [42]: 895 nM; GI50 [43]: 167 nM; TGI [43]: 741 nM; GI50 [44]: 153 nM; TGI [44]: 436 nM; GI50 [45]: 95.4 nM; TGI [45]: 253 nM; GI50 [46]: 886 nM; TGI [46]: 3760 nM; GI50 [47]: 336 nM; TGI [47]: 10400 nM; GI50 [48]: 33.7 nM; TGI [48]: 10600 nM; GI50 [49]: 463 nM; TGI [49]: 1830 nM; GI50 [50]: 124 nM; TGI [50]: 3590 nM
